Experimental data from US12122756B2, “Biflavone compound against I-type herpes simplex virus, and preparation method therefor and use thereof” (priority 2022, dated 2024).
Marks after values point to notes of the source that are not given here.

Columns and labels:
Vero cells = assay: Cytotoxic assay of tested drugs against Vero cells (CCK-8); type: cell-based, African green monkey
Protocol: 3. Cytotoxic assay of tested drugs against Vero cells: Vero cells were seed in a 96 well plate at 3×10^4 cells/well. The next day, after growing into a monolayer, the test drug was diluted to obtain 8-9 concentrations and added to each well. Meanwhile, a normal control group was established, with 4 replicate wells for each group. After 72 hours, the toxicity of the test drug to Vero cells was measured using CCK-8 assay, and the highest non-toxic concentration and half toxic concentration (TC50) of the drug on the cells were calculated.

HSV-I [1] = assay: Cytopathic effect (CPE) assay: inhibition of pathological changes of Vero cells induced by HSV-I (CCK-8); type: cell-based, Herpes simplex virus type I
Protocol: (1) Determination of the inhibitory activities of the test drugs on pathological changes of Vero cells induced by HSV-I using the cytopathic effect (CPE) assay: Vero cells were seeded in a 96-well plate and grew into a monolayer the next day. 100TCID50 HSV-I was added to infect cells, and then the cell maintenance solution containing different concentrations of the test drug was replaced, and a cell control group was included. The cells were cultured in an incubator for 72 hours. Then, the inhibitory effect of the drug on virus-induced cytopathic changes was measured using the CCK-8 assay, and thus the 50% inhibiting concentration (IC50) of the drug was calculated.

HSV-I [2] = assay: Plaque-reduction method: plaque formation in Vero cells induced by HSV-I; type: cell-based, Herpes simplex virus type I
Protocol: (2) Measurement of the inhibitory effect of drugs on the formation of plaque in Vero cells induced by HSV-I using plaque-reduction method: Vero cells were seeded into a 24-well plate and grew into a monolayer the next day. Then, the 100 PFU/0.2 ml virus solution was added to infect the cells, and a cell control group was included. After incubation with the virus, the agarose cover solution for maintenance of cells, containing different concentrations of the test drug, was replaced, followed by cultivation for additional 72 hours. The cell culture was fixed with 4% paraformaldehyde, stained with 1% crystal violet solution, washed, and dried. The plaque was counted to calculate plaque-forming inhibition ratio of the drug. [formula] 5. Study on the Action Mode of the Test Drug

HSV-I [3] = assay: Action mode: inhibitory effect on HSV-I replication (CPE, CCK-8); type: cell-based, Herpes simplex virus type I
Protocol: (2) The inhibitory effect of drugs on HSV-I replication: Vero cells were seeded in a 96-well plate and grew into a monolayer, before adding HSV-I virus solution at 100 μl/well, followed by incubation for 1 hour. Then, the cell maintenance solution containing different concentrations of sample was replaced, and the cells were further cultured. After 72 hours, the effect on the replication of virus was determined using the CCK-8 method.

HSV-I [4] = assay: Action mode: inhibitory effect on HSV-I adsorption (CPE, CCK-8); type: cell-based, Herpes simplex virus type I
Protocol: (1) The inhibitory effect of drugs on HSV-I adsorption: Vero cells were seeded in a 96-well plate and grew into a monolayer, before pretreatment with different concentrations of samples. Then, HSV-I virus solution was added at 100 μl/well, followed by incubation for 1 hour. Finally, the cell maintenance solution was replaced, and the cells were further cultured. After 72 hours, the effect on the adsorption of virus was determined using the CCK-8 method.

HSV-I viral keratitis = HSV-I viral keratitis model in mice, eye drops; type: in vivo
Excerpt: 8-week-old C57 mice (25 mice, weighing 22 g-25 g) were used to establish HSV-I viral keratitis models in their right eyes. During the modeling process, ster[…] needles were used to make #-shaped/*-shaped/parallel scratches on the cornea of all animals' right eyes. The depth of the scratches must be in the superficial layer, and could not penetrate the stroma. The depth of the scratches for each eye was moderately uniform, and the scratches were evenly distributed, and then a fiber syringe was used to drop 4 μl of HSV-I virus solution mixed well (titer: 2.0×10^6 PFU/ml), to finish modeling. After 1 day of modeling, the right eye of the animal was scored for HSV-I viral keratitis, and 20 mice with successful and uniform modeling were selected for inclusion in the experiment, which were randomly divided into two groups: a modeling group (Ctrl) and a di-XYW compound group, with 10 mice in one group. The surface of the right eye of the animal was treated with a corresponding solvent (Ctrl group, with physiological saline as the solvent) or a di-XYW compound at a concentration of 500 μg/ml (using physiological saline as the solvent), by administering every other day. On the day of administration, each eye should be administrated 5 times, 10 μl for each time, for 2 weeks. The pathological change of keratitis was scored before eye drops (Day 0) and on days 1, 3, 7, and 14 after eye drops (that was summarized as clinical scores, with scoring criteria shown in Table 7), followed by analysis and comparison. [table]

[5] = Solubility (highest solubility used as starting concentration; water solubility)

## COc1c(O)c(Cc2c(O)c(OC)c(O)c3c(=O)c(-c4ccc(O)c(S(=O)(=O)[O-])c4)coc23)c2occ(-c3ccc(O)c(S(=O)(=O)[O-])c3)c(=O)c2c1O.[Na+].[Na+] [Compound 2, 8,8″-methylene-di-(sodiumtectorigenin-5′-sulphonate)]
Vero cells; 1st (highest) concentration (971, 1600, 2620, 390 μg·ml^−1 for Compounds 1-4), 72 h
  growth inhibition rate (%) on Vero cells: 41.92** %
Vero cells; 2nd concentration, 50% serial dilution from column-head concentration, 72 h
  growth inhibition rate (%) on Vero cells: 29.02** %
Vero cells; 3rd concentration, 50% serial dilution from column-head concentration, 72 h
  growth inhibition rate (%) on Vero cells: 11.69** %
Vero cells; 4th concentration, 50% serial dilution from column-head concentration, 72 h
  growth inhibition rate (%) on Vero cells: −4.55%
Vero cells; 5th concentration, 50% serial dilution from column-head concentration, 72 h
  growth inhibition rate (%) on Vero cells: 5.46%
Vero cells; 6th concentration, 50% serial dilution from column-head concentration, 72 h
  growth inhibition rate (%) on Vero cells: −4.74%
Vero cells; 7th concentration, 50% serial dilution from column-head concentration, 72 h
  growth inhibition rate (%) on Vero cells: −12.11%
Vero cells; 8th concentration, 50% serial dilution from column-head concentration, 72 h
  growth inhibition rate (%) on Vero cells: −8.20%
Vero cells; 9th concentration, 50% serial dilution from column-head concentration, 72 h
  growth inhibition rate (%) on Vero cells: −13.88%
Vero cells; 72 h, CCK-8, Probit regression
  TC50 on Vero cells: 1749.982 µg/mL
Vero cells; Vero cells
  toxicity (in words): lower toxicity
Vero cells; Vero cells (Table 5)
  TC50: 1749.982 µg/mL
Vero cells; Vero cells, 72 h, CCK-8
  highest non-toxic concentration: 382.804 µg/mL
HSV-I [1]; 5.97 μg/ml, n = 6
  Average optical density (OD): 0.33 ± 0.04
HSV-I [1]; 11.94 μg/ml, n = 6
  Average optical density (OD): 0.35 ± 0.05
HSV-I [1]; 23.88 μg/ml, n = 6
  Average optical density (OD): 0.44 ± 0.07
HSV-I [1]; 47.75 μg/ml, n = 6
  Average optical density (OD): 0.65 ± 0.06
HSV-I [1]; 95.50 μg/ml, n = 6
  Average optical density (OD): 0.95 ± 0.04
HSV-I [1]; 191.00 μg/ml, n = 6
  Average optical density (OD): 1.06 ± 0.05
HSV-I [1]; 382.00 μg/ml, n = 6
  Average optical density (OD): 1.10 ± 0.03
HSV-I [1]; CPE method
  inhibitory effect on HSV-I induced cytopathic changes (in words): significant inhibitory effect
HSV-I [1]; Human alphaherpesvirus 1, Vero, 5.97 μg/ml, n = 6, read-out: Inhibition rate (%)
  inhibition at 5.97 µg/mL: -0.36%
HSV-I [1]; Human alphaherpesvirus 1, Vero, 11.94 μg/ml, n = 6, read-out: Inhibition rate (%)
  inhibition at 11.94 µg/mL: 2.87%
HSV-I [1]; Human alphaherpesvirus 1, Vero, 23.88 μg/ml, n = 6, read-out: Inhibition rate (%)
  inhibition at 23.88 µg/mL: 14.5%
HSV-I [1]; Human alphaherpesvirus 1, Vero, 47.75 μg/ml, n = 6, read-out: Inhibition rate (%)
  inhibition at 47.75 µg/mL: 40.7%
HSV-I [1]; Human alphaherpesvirus 1, Vero, 95.50 μg/ml, n = 6, read-out: Inhibition rate (%)
  inhibition at 95.5 µg/mL: 79.9%
HSV-I [1]; Human alphaherpesvirus 1, Vero, 191.00 μg/ml, n = 6, read-out: Inhibition rate (%)
  inhibition at 191 µg/mL: 94%
HSV-I [1]; Human alphaherpesvirus 1, Vero, 382.00 μg/ml, n = 6, read-out: Inhibition rate (%)
  inhibition at 382 µg/mL: 99.2%
HSV-I [1]; Human alphaherpesvirus 1, against HSV-I in Vero cells, Probit regression
  IC50: 54.5 µg/mL
HSV-I [1]; TC50 on Vero cells / IC50 against HSV-I
  SI (selection index = TC50/IC50): 32.117
HSV-I [2]
  inhibitory effect on plaque formation induced by HSV-I (in words): significant inhibitory effect
HSV-I [3]; 5.97 μg/ml, n = 6
  Effect on viral replication: OD value: 0.33 ± 0.05
HSV-I [3]; 11.94 μg/ml, n = 6
  Effect on viral replication: OD value: 0.36 ± 0.07
HSV-I [3]; 23.88 μg/ml, n = 6
  Effect on viral replication: OD value: 0.62 ± 0.05
HSV-I [3]; 47.45 μg/ml, n = 6
  Effect on viral replication: OD value: 0.80 ± 0.05
HSV-I [3]; 95.50 μg/ml, n = 6
  Effect on viral replication: OD value: 0.97 ± 0.09
HSV-I [3]; 191.00 μg/ml, n = 6
  Effect on viral replication: OD value: 0.98 ± 0.12
HSV-I [3]; 382.00 μg/ml, n = 6
  Effect on viral replication: OD value: 0.99 ± 0.02
HSV-I [3]; CPE method
  effect on viral replication (in words): significant effect
HSV-I [3]; Human alphaherpesvirus 1, 5.97 μg/ml, n = 6, read-out: Effect on viral replication: Inhibition rate (%)
  inhibition at 5.97 µg/mL: 13.1%
HSV-I [3]; Human alphaherpesvirus 1, 11.94 μg/ml, n = 6, read-out: Effect on viral replication: Inhibition rate (%)
  inhibition at 11.94 µg/mL: 17.6%
HSV-I [3]; Human alphaherpesvirus 1, 23.88 μg/ml, n = 6, read-out: Effect on viral replication: Inhibition rate (%)
  inhibition at 23.88 µg/mL: 50.5%
HSV-I [3]; Human alphaherpesvirus 1, 47.45 μg/ml, n = 6, read-out: Effect on viral replication: Inhibition rate (%)
  inhibition at 47.45 µg/mL: 73.8%
HSV-I [3]; Human alphaherpesvirus 1, 95.50 μg/ml, n = 6, read-out: Effect on viral replication: Inhibition rate (%)
  inhibition at 95.5 µg/mL: 96.2%
HSV-I [3]; Human alphaherpesvirus 1, 191.00 μg/ml, n = 6, read-out: Effect on viral replication: Inhibition rate (%)
  inhibition at 191 µg/mL: 98%
HSV-I [3]; Human alphaherpesvirus 1, 382.00 μg/ml, n = 6, read-out: Effect on viral replication: Inhibition rate (%)
  inhibition at 382 µg/mL: 98.8%
HSV-I [4]; 5.97 μg/ml, n = 6
  Effect on viral adsorption: OD value: 0.24 ± 0.03
HSV-I [4]; 11.94 μg/ml, n = 6
  Effect on viral adsorption: OD value: 0.23 ± 0.05
HSV-I [4]; 23.88 μg/ml, n = 6
  Effect on viral adsorption: OD value: 0.24 ± 0.04
HSV-I [4]; 47.45 μg/ml, n = 6
  Effect on viral adsorption: OD value: 0.25 ± 0.04
HSV-I [4]; 95.50 μg/ml, n = 6
  Effect on viral adsorption: OD value: 0.26 ± 0.06
HSV-I [4]; 191.00 μg/ml, n = 6
  Effect on viral adsorption: OD value: 0.25 ± 0.06
HSV-I [4]; 382.00 μg/ml, n = 6
  Effect on viral adsorption: OD value: 0.24 ± 0.06
HSV-I [4]; CPE method
  inhibitory effect on viral adsorption (in words): almost no inhibitory effect
HSV-I [4]; Human alphaherpesvirus 1, 5.97 μg/ml, n = 6, read-out: Effect on viral adsorption: Inhibition rate (%)
  inhibition at 5.97 µg/mL: 4.97%
HSV-I [4]; Human alphaherpesvirus 1, 11.94 μg/ml, n = 6, read-out: Effect on viral adsorption: Inhibition rate (%)
  inhibition at 11.94 µg/mL: 4.83%
HSV-I [4]; Human alphaherpesvirus 1, 23.88 μg/ml, n = 6, read-out: Effect on viral adsorption: Inhibition rate (%)
  inhibition at 23.88 µg/mL: 5.22%
HSV-I [4]; Human alphaherpesvirus 1, 47.45 μg/ml, n = 6, read-out: Effect on viral adsorption: Inhibition rate (%)
  inhibition at 47.45 µg/mL: 6.97%
HSV-I [4]; Human alphaherpesvirus 1, 95.50 μg/ml, n = 6, read-out: Effect on viral adsorption: Inhibition rate (%)
  inhibition at 95.5 µg/mL: 7.33%
HSV-I [4]; Human alphaherpesvirus 1, 191.00 μg/ml, n = 6, read-out: Effect on viral adsorption: Inhibition rate (%)
  inhibition at 191 µg/mL: 6.16%
HSV-I [4]; Human alphaherpesvirus 1, 382.00 μg/ml, n = 6, read-out: Effect on viral adsorption: Inhibition rate (%)
  inhibition at 382 µg/mL: 5.39%
HSV-I viral keratitis; C57 mice, after 1 and 2 weeks of eye drops at 500 μg/ml, *P<0.05
  keratitis pathological changes and clinical score changes compared to model control group (Ctrl): statistically significant differences
HSV-I viral keratitis; C57 mice, eye drops 500 μg/ml, every other day, 5 x 10 μl per day, 2 weeks
  therapeutic effect on HSV-I viral keratitis (in words): good therapeutic effect
HSV-I viral keratitis; mice, eye drops
  inhibition of pathological changes of HSV-I viral keratitis (in words): effectively inhibit
[5]
  solubility: 1600 µg/mL
